From US7566712B2, “Biaryl piperazinyl-pyridine analogues” (Neurogen Corporation, priority 2003, dated 2009)

Target: T1, human capsaicin receptor (Homo sapiens, UniProt Q8NER1)
T1 construct: pBK-CMV expression construct encoding the full length human capsaicin receptor; expressed in transfected cells
Assay: Calcium mobilization assay, determination of antagonist activity (Example 6)
Type: cell-based
Conditions: Table II; IC50 determined as described in Example 6
In short: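 HEK293 clonal lines stably expressing full-length human capsaicin receptor, loaded with Fluo-3 AM in KRH buffer pH 7.4, 1–2 h at 37 °C. Compounds (1–5 μM final) preincubated 0.5–6 h at room temperature, then capsaicin at its EC50 added. FLIPR/Fluoroskan calcium signal; IC50 as 50% decrease of capsaicin response.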

T1 sequence (Q8NER1 whole entry): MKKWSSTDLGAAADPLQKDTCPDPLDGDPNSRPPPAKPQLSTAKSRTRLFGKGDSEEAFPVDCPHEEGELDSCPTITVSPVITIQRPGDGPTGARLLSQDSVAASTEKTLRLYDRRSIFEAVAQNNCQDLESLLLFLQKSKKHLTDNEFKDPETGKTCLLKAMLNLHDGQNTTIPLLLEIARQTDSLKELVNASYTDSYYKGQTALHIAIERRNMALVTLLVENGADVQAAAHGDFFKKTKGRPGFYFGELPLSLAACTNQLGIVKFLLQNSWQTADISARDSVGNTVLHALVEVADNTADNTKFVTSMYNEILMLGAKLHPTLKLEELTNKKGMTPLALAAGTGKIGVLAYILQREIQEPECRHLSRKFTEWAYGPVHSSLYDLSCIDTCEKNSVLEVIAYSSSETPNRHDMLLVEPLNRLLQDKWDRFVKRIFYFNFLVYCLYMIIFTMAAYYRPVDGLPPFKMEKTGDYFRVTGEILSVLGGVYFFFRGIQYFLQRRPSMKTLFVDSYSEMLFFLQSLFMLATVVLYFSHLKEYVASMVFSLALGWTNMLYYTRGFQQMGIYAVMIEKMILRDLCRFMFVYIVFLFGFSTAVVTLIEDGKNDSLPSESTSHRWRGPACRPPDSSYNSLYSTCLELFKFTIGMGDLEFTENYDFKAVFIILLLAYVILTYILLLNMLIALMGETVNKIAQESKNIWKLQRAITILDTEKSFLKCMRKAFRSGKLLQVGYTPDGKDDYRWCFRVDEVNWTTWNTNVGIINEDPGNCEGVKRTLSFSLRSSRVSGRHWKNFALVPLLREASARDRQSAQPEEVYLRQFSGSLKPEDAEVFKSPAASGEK

IC50, ≤ 1000 nM:
CCc1ccc(-c2cc(N3CCN(c4ncccc4C)C[C@H]3C)nc(N3CCOCC3)n2)cc1 [Example 510, 4-{4-(4-ethylphenyl)-6-[(2R)-2-methyl-4-(3-methylpyridin-2-yl)piperazin-1-yl]pyrimidin-2-yl}morpholine]
C[C@@H]1CN(c2ncccc2C(F)(F)F)CCN1c1cc(-c2ccc(Cl)cc2)nc(N2CCOCC2)n1 [Example 484, 4-(4-(4-chlorophenyl)-6-{(2R)-2-methyl-4-[3-(trifluoromethyl)pyridin-2-yl]piperazin-1-yl}pyrimidin-2-yl)morpholine]
CN1CCCC(Oc2nc(-c3ccc(F)c(Cl)c3)cc(N3CCN(c4ncccc4C(F)(F)F)CC3)n2)C1 (stereo not drawn) [Example 559, 4-(3-chloro-4-fluorophenyl)-2-[(1-methylpiperidin-3-yl)oxy]-6-{4-[3-(trifluoromethyl)pyridin-2-yl]piperazin-1-yl}pyrimidine]
Cc1ccc(-c2cc(N3CCN(c4ncccc4C(F)(F)F)C[C@H]3C)nc(N3CCOCC3)n2)cc1F [Example 495, 4-(4-(3-fluoro-4-methylphenyl)-6-{(2R)-2-methyl-4-[3-(trifluoromethyl)pyridin-2-yl]piperazin-1-yl}pyrimidin-2-yl)morpholine]
C[C@@H]1CN(c2ncccc2C(F)(F)F)CCN1c1cc(-c2cccc(OC(F)(F)F)c2)nc(N2CCOCC2)n1 [Example 534, 4-{4-{(2R)-2-methyl-4-[3-(trifluoromethyl)pyridin-2-yl]piperazin-1-yl}-6-[3-(trifluoromethoxy)phenyl]pyrimidin-2-yl}morpholine]
Fc1ccc(-c2cc(N3CCN(c4ncccc4C(F)(F)F)CC3)nc(OC3CCNCC3)n2)cc1Cl [Example 561, 4-(3-chloro-4-fluorophenyl)-2-(piperidin-4-yloxy)-6-{4-[3-(trifluoromethyl)pyridin-2-yl]piperazin-1-yl}pyrimidine]

Same assay, conditions: Table II; IC50 determined as described in Example 6 (antagonist activity, calcium mobilization)

IC50, ≤ 1000 nM:
C[C@H]1CN(c2nccnc2Cl)CCN1c1cc(-c2ccc(F)c(Cl)c2)nc(N2CCOCC2)n1 [Example 975, 4-{4-(3-chloro-4-fluorophenyl)-6-[(2S)-4-(3-chloropyrazin-2-yl)-2-methylpiperazin-1-yl]pyrimidin-2-yl}morpholine]

Same assay, conditions: Table II; determined as described in Example 6 (antagonist activity); "*" = 1 micromolar or less

IC50, ≤ 1000 nM:
OC1CN(c2nc(-c3ccc(F)c(Cl)c3)cc(N3CCN(c4ncccc4C(F)(F)F)CC3)n2)C1 [Example 774, 1-(4-(3-chloro-4-fluorophenyl)-6-{4-[3-(trifluoromethyl)pyridin-2-yl]piperazin-1-yl}pyrimidin-2-yl)azetidin-3-ol]
C[C@@H]1CN(c2ncccc2Cl)CCN1c1cc(-c2cccc(C#N)c2)nc(N2CCCC2)n1 [Example 868, 3-{6-[(2R)-4-(3-chloropyridin-2-yl)-2-methylpiperazin-1-yl]-2-pyrrolidin-1-ylpyrimidin-4-yl}benzonitrile]
CC1CCCN1c1nc(-c2cncc(C#N)c2)cc(N2CCN(c3ncccc3Cl)C[C@H]2C)n1 (stereo partly drawn) [Example 880, 5-[6-[4-(3-chloropyridin-2-yl)-2-methylpiperazin-1-yl]-2-(2-methylpyrrolidin-1-yl)pyrimidin-4-yl]nicotinonitrile]
CCCN1CC[C@H](N(C)c2nc(-c3ccc(F)c(C)c3)cc(N3CCN(c4ncccc4C(F)(F)F)CC3)n2)C1 [Example 831, 4-(4-fluoro-3-methylphenyl)-N-methyl-N-[(3S)-1-propylpyrrolidin-3-yl]-6-{4-[3-(trifluoromethyl)pyridin-2-yl]piperazin-1-yl}pyrimidin-2-amine]
COC1CN(c2nc(-c3ccc(F)c(Cl)c3)cc(N3CCN(c4ncccc4C(F)(F)F)CC3)n2)C1 [Example 776, 4-(3-chloro-4-fluorophenyl)-2-(3-methoxyazetidin-1-yl)-6-{4-[3-(trifluoromethyl)pyridin-2-yl]piperazin-1-yl}pyrimidine]
CC1CCCN1c1nc(-c2ccc(F)cc2)cc(N2CCN(c3nc(O)ccc3Cl)C[C@H]2C)n1 (stereo partly drawn) [Example 970, 5-chloro-6-{4-[6-(4-fluorophenyl)-2-(2-methylpyrrolidin-1-yl)pyrimidin-4-yl]-3-methylpiperazin-1-yl}pyridin-2-ol]
O=C1CNCCN1c1nc(-c2ccc(F)c(Cl)c2)cc(N2CCN(c3ncccc3C(F)(F)F)CC2)n1 [Example 884, 1-(4-(3-chloro-4-f1uorophenyl)-6-{4-[3-(trifluoromethyl)pyridin-2-yl]piperazin-1-yl}pyrimidin-2-yl)piperazin-2-one]
C[C@@H]1CN(c2ncccc2Cl)CCN1c1cc(-c2ccc(F)cc2)nc(N2CCOCC2)n1 [Example 845, 4-[4-[(2R)-4-(3-chloropyridin-2-yl)-2-methylpiperazin-1-yl]-6-(4-fluorophenyl)pyrimidin-2-yl]morpholine]
CN(C)CCC(O)c1nc(-c2ccc(F)c(F)c2)cc(N2CCN(c3ncccc3C(F)(F)F)CC2)n1 (stereo not drawn) [Example 893]

Same assay, conditions: Table II; determined as described in Example 6; class symbol

IC50, ≤ 1000 nM:
Cc1cccc(-c2nc(N3CCOCC3)nc(N3CCN(c4ncccc4C(F)(F)F)CC3)n2)c1 [Example 238, 2-(3-methylphenyl)-4-morpholin-4-yl-6-{4-[3-(trifluoromethyl)pyridin-2-yl]piperazin-1-yl}-1,3,5-triazine]
Cc1cc(F)ccc1-c1nc(N2CCOCC2)nc(N2CCN(c3ccccn3)CC2)n1 [Example 273, 2-(4-fluoro-2-methylphenyl)-4-morpholin-4-yl-6-(4-pyridin-2-ylpiperazin-1-yl)-1,3,5-triazine]

Same assay, conditions: determined as described in Example 6 (calcium mobilization, antagonist activity); Table II

IC50, ≤ 1000 nM:
Fc1ccc(-c2cc(N3CCN(c4ncccc4Cl)CC3)nc(N3CCCCC3)n2)cc1Cl [Example 715, 4-(3-chloro-4-fluorophenyl)-6-[4-(3-chloropyridin-2-yl)piperazin-1-yl]-2-piperidin-1-ylpyrimidine]
Cc1cc(-c2cc(N3CCN(c4ncccc4C(F)(F)F)CC3)nc(N3C(C)CCC3C)n2)ccc1F (stereo not drawn) [Example 677, 2-(2,5-dimethylpyrrolidin-1-yl)-4-(4-fluoro-3-methylphenyl)-6-{4-[3-(trifluoromethyl)pyridin-2-yl]piperazin-1-yl}pyrimidine]
CCN(CC)c1nc(-c2ccc(F)c(F)c2)cc(N2CCN(c3ncccc3C(F)(F)F)CC2)n1 [Example 596, 4-(3,4-difluorophenyl)-N,N-diethyl-6-{4-[3-(trifluoromethyl)pyridin-2-yl]piperazin-1-yl}pyrimidin-2-amine]
Cc1cc(-c2cc(N3CCN(c4ncccc4C)CC3)nc(N3CCCC3C)n2)ccc1F (stereo not drawn) [Example 696, 4-(4-fluoro-3-methylphenyl)-6-[4-(3-methylpyridin-2-yl)piperazin-1-yl]-2-(2-methylpyrrolidin-1-yl)pyrimidine]
FC(F)(F)c1cccnc1N1CCN(c2cc(-c3ccc(N4CCCC4)c(Cl)c3)nc(N3CCCC3)n2)CC1 [Example 608, 4-(3-chloro-4-pyrrolidin-1-ylphenyl)-2-pyrrolidin-1-yl-6-{4-[3-(trifluoromethyl)pyridin-2-yl]piperazin-1-yl}pyrimidine]
CC1(C)CCCN(c2nc(-c3ccc(F)c(Cl)c3)cc(N3CCN(c4ncccc4C(F)(F)F)CC3)n2)C1 [Example 612, 4-(3-chloro-4-fluorophenyl)-2-(3,3-dimethylpiperidin-1-yl)-6-{4-[3-(trifluoromethyl)pyridin-2-yl]piperazin-1-yl}pyrimidine]
Cc1cc(-c2cc(N3CCN(c4ncccc4C(F)(F)F)CC3)nc(N3C(C)C=CC3C)n2)ccc1F (stereo not drawn) [Example 739, 2-(2,5-dimethyl-2,5-dihydro-1H-pyrrol-1-yl)-4-(4-fluoro-3-methylphenyl)-6-{4-[3-(trifluoromethyl)pyridin-2-yl]piperazin-1-yl}pyrimidine]
C[C@@H]1CN(c2ncccc2Cl)CCN1c1cc(-c2ccc(F)c(Cl)c2)nc(N2CCCCC2)n1 [Example 734, 4-(3-chloro-4-fluorophenyl)-6-[(2R)-4-(3-chloropyridin-2-yl)-2-methylpiperazin-1-yl]-2-piperidin-1-ylpyrimidine]
Fc1ccc(-c2cc(N3CCN(c4ncccc4C(F)(F)F)CC3)nc(N3CCCCC3)n2)cc1Cl [Example 602, 4-(3-chloro-4-fluorophenyl)-2-piperidin-1-yl-6-{4-[3-(trifluoromethyl)pyridin-2-yl]piperazin-1-yl}pyrimidine]
CCN1CCN(c2nc(-c3ccc(F)c(C)c3)cc(N3CCN(c4ncccc4C(F)(F)F)CC3)n2)CC1 [Example 667, 2-(4-ethylpiperazin-1-yl)-4-(4-fluoro-3-methylphenyl)-6-{4-[3-(trifluoromethyl)pyridin-2-yl]piperazin-1-yl}pyrimidine]
Cc1cc(-c2cc(N3CCN(c4ncccc4C(F)(F)F)CC3)nc(N(C(C)C)S(=O)(=O)C(C)C)n2)ccc1F [Example 692, N-(4-(4-fluoro-3-methylphenyl)-6-{4-[3-(trifluoromethyl)pyridin-2-yl]piperazin-1-yl}pyrimidin-2-yl)-N-isopropylpropane-2-sulfonamide]
CC(=O)N1CCN(c2nc(-c3ccc(F)c(Cl)c3)cc(N3CCN(c4ncccc4C(F)(F)F)CC3)n2)CC1 [Example 625, 2-(4-acetylpiperazin-1-yl)-4-(3-chloro-4-fluorophenyl)-6-{4-[3-(trifluoromethyl)pyridin-2-yl]piperazin-1-yl}pyrimidine]
